Source: patent publication US8895598B2, “Methods of treating a flaviviridae family viral infection, compositions for treating a flaviviridae family viral infection, and screening assays for identifying compositions for treating a flaviviridae family viral infection” (priority 2007, dated 2014)
pEC50, pIC50: −log10 of the molar value. “Also recorded” adds a separate entry of the source. Structures can show the parent of a compound that is named as a salt. Where two headings read alike, the source gives them in different places.

What was measured:
[1] = tested on: HCV RNA replication (full-length HCV RNA genome harboring a Luciferase reporter gene); test: Luciferase reporter-linked HCV replication assay in Huh7.5 cells; assay type: cell-based, Hepatitis C Virus; conditions: for activity at 5 µM / activity at 10 µM: Hepatitis C virus, Huh7.5
Experimental: For example, HCV replication assays employing a luciferase reporter-linked HCV genome in the presence of various combinations of clemizole and an NS3 protease inhibitor (SCH503034) are shown in FIGS. 1A and 1B. In such assays, luciferase activity is directly proportional to HCV RNA genome replication. […] The results can be plotted on a linear or log scale as a function of drug concentrations to generate replication inhibition curves.
Luciferase assays were performed at 72 hr.
Medium was changed daily.
The experiment was repeated four times, each time with triplicates.

[2] = Alamar Blue-based viability assay; conditions: human
Experimental: (§1) The in vivo antiviral effect on HCV RNA replication of the inhibitory compounds identified in the above screen was measured. Following electroporation with a full-length HCV RNA genome harboring a Luciferase reporter gene^28, Huh7.5 cells were grown in the presence of increasing concentrations of these compounds. Luciferase assays were performed at 72 hr. In parallel, the viability of cells in the presence of the compounds was assessed by an Alamar Blue-based assay.
(§2) Following 72 hrs of treatment, cells were incubated for 3 hrs at 37° C. in the presence of 10% Alamar Blue reagent (TREK Diagnostic Systems). Plates were then scanned and fluorescence was detected by using FLEXstation II 384 (Molecular Devices, Inc.).

[3] = tested on: Huh7.5 cells; test: Alamar Blue-based viability assay; conditions: HCV-infected Huh7.5 cells, FIG. 15
Experimental: as §1, §2

[4] = tested on: infectious HCV clone (J6/JFH); assay type: cell-based, Hepatitis C Virus; conditions: FIG. 15, 72 hours
[5] = tested on: W55R mutant J6/JFH RNA; test: Replication assays with the clemizole-resistant W55R mutant; assay type: cell-based, Hepatitis C Virus
[6] = tested on: R214Q mutant HCV RNA; test: Luciferase reporter linked replication assay with the clemizole-resistant R214Q mutant; assay type: cell-based; conditions: Hepatitis C virus, read-out: EC50 on the R214Q mutant
[7] = target: T1, W55R NS4B mutant binding to HCV RNA (Hepatitis C virus genotype 1a, UniProt P27958, A1893V/D1840G/F1898S/L1839I/R1905H/S1900A/W1766R); test: Microfluidic in vitro RNA binding assay of W55R NS4B mutant; conditions: in the presence of 10 nM clemizole
T1 construct: made in house; host or cells: coupled transcription/translation rabbit reticulocyte system (Promega) with canine microsomal membranes

[8] = target: HuR binding to the consensus 4A RNA sequence (Homo sapiens, UniProt Q15717); test: Specificity: HuR binding to 4A RNA by microfluidics; conditions: hits at 0.1 mM
Experimental: Next a standard 25 μL TNT T7 coupled wheat germ extract mixture (Promega) was prepared and spiked with 1 μL tRNALys-bodipy-fl (Promega) and 2 μL of plasmid DNA template coding for the appropriate protein (HuR, HuD or Gus). The mixture was immediately loaded into the device and flushed for 5 min, after which the chamber valves were opened allowing for dead end filling of the chambers with wheat germ extract. The chamber valves were again closed and flushing continued for an additional 5 min. Next the segregation valves separating each unit cell were closed, followed by opening of the chamber valves allowing for equilibration of the unit cell by diffusion. The entire device was heated to 30° C. on a temperature controlled microscope stage and incubated for up to 90 min to complete protein synthesis, binding of protein to the surface bound biotinylated-5-histidine antibody, solvation of target RNA, and equilibration of proteins and target RNA. […] Radial closure prevents solvent pockets from forming between the two interfaces and effectively creates zero dead volume while preserving the equilibrium concentrations of the molecular interactions to be detected. This was followed by a 5 min PBS wash to remove untapped unbound material. The device was then imaged on a modified array WoRxe (AppliedPrecision) microarray scanner to detect protein synthesis and the trapped molecules. […]

[9] = tested on: HCV (genotype 4); test: Treatment of patients chronically infected with HCV, serum HCV viral load; assay type: in vivo, human
Experimental: Three patients chronically-infected with HCV (genotype 4) were treated in accordance with an embodiment of the method of the invention. All were male and had baseline ALT elevations and significant HCV viral loads ranging from 290,000-730,000 IU/ml.
After the first four weeks of clemizole monotherapy, pegylated interferon was added.

[10] = human, in vivo; cited from earlier work
[11] = cited from earlier work
[12] = guinea pig; cited from earlier work
[13] = target: NS4B binding to the 3′ terminus of the HCV negative strand RNA (Hepatitis C virus genotype 1a, UniProt P27958); test: Microfluidic (MITOMI) in vitro RNA binding assay of NS4B
[14] = target: HuR binding to the 3′ terminus of the negative HCV RNA strand (Homo sapiens, UniProt Q15717); test: Specificity: HuR binding to the 3′ terminus of the negative HCV RNA strand; conditions: hits at 0.1 mM
Experimental: Specificity of hits identified in the small molecule screen: To determine the specificity of the hits identified in the small molecule screen, the HuR protein (one of the human RNA binding protein used to validate our RNA binding assay) was selected. […] Binding of HuR to the consensus 4A RNA sequence was tested in the presence of the inhibitory molecules shown to inhibit RNA binding by NS4B. […] Similarly, 0.1 mM of the identified compounds didn't have an inhibitory effect on binding of HuR to the 3′ terminus of the negative HCV RNA strand.

[15] = read-out: AV (HCV RNA replication, percent of normal activity remaining)
[16] = read-out: AV score (binned residual HCV replication)
[17] = 3 patients, clemizole 100 mg po BID monotherapy
[18] = 40 to 160 mg/day, 1 to 12 weeks

SMILES | activity at 5 µM [1, 15] [%] | activity at 5 µM [1, 16] [%] | activity at 10 µM [1, 15] [%] | activity at 10 µM [1, 16] [%] | further results
Clc1ccc(Cn2c(CN3CCCC3)nc3ccccc32)cc1 [drawing 415] | 62 | 60 to 90 | 37 | 30 to 60 | viability at 72 h, 5 µM [2]: 107%; viability at 72 h, 10 µM [2]: 93%
COc1ccc(Cn2cnc3ccccc32)cc1 | 70 | 60 to 90 | 58 | 30 to 60 | 
Cc1ccc(Cn2cnc3ccccc32)cc1 | 49 | 30 to 60 | 23 | 10 to 30 | 
Cc1cc2ncn(Cc3ccc(Cl)cc3Cl)c2cc1C | 30 | 10 to 30 | 8 | 10 to 30 | 
Cc1nc2cc(Cl)ccc2n1Cc1ccccc1 | 87 | 60 to 90 | 60 | 60 to 90 | 
Brc1ccc(Cn2cnc3ccccc32)cc1 | 23 | 10 to 30 | 8 | 10 to 30 | 
Clc1ccc(Cn2c(CN3CCCC3)nc3ccccc32)cc1 [Clemizole hydrochloride, clemizole hydrochloride, reference compound] |  |  |  |  | decrease in viral replication ([1]; 20 μM, 72 hr): tenfold
CC(C)(C)c1ccc(Cn2cnc3ccccc32)cc1 | 30 | 10 to 30 | 12 | 10 to 30 | 
OCc1nc2ccccc2n1Cc1ccc(Br)cc1 |  | 30 to 60 | 28 | 10 to 30 | 
Clc1ccc(Cn2c(CN3CCCC3)nc3ccccc32)cc1 [clemizole] |  |  |  |  | effect of adding clemizole to NS3 protease inhibitor SCH503034 on HCV replication ([1]; SCH503034 1-5 micromolar, 72 hours): increase the inhibition of HCV replication in a dose-dependent manner by up to several logs; toxicity to the cell in real-time PCR experiment [3]: no measurable toxicity to the cell; HCV replication levels by real-time PCR [4]: inhibits HCV replication; replication of W55R mutant in presence of clemizole ([5]; 10 μM clemizole, whole cell RNA (colonies) or in vitro-transcribed luciferase RNA): unaffected; pEC50 ([5]; Hepatitis C virus, read-out: EC50 on the W55R mutant J6/JFH RNA): ~4.74; pEC50 [6]: 4.39; reduction of RNA binding of W55R NS4B mutant [7]: ~2 fold; effect on binding of HuR to 4A RNA [8]: No inhibitory effect; HCV viral load at week 2 [9, 17]: drops in HCV viral load; HCV viral load at week 4 [9, 17]: nearly at or below the limit of HCV detection; also recorded: completely, or nearly, undetectable; HCV viral load after 8 weeks ([9]; 4 weeks clemizole monotherapy plus 4 weeks clemizole with standard dose pegylated interferon): below the limit of detection; drowsiness, share of the patients treated (Zierz and Greither) [10]: 1.3%; patients reporting excellent relief of itching [11, 18]: 66%; patients reporting good relief of itching [11, 18]: 23%; patients with mild side effects (drowsiness most common) ([11]; human, in vivo): 4 patients; prevention of histamine-induced asthma [12]: superior to atropine and other antihistamines in preventing histamine-induced asthma; pIC50 [13]: ~7.62; reduction of RNA binding of wild type NS4B ([13]; in the presence of 10 nM clemizole): ~2 fold
COC(=O)c1ccc(Cn2cnc3ccccc32)cc1 | 74 | 60 to 90 | 54 | 30 to 60 | 
Cc1nc2ccccc2n1Cc1ccc(Br)cc1 | 3 | 10 to 30 | 2 | 10 to 30 | 
O=C(O)C1=CC(=C(c2ccc(O)c(C(=O)O)c2)c2ccc(O)c(C(=O)O)c2)C=CC1=O [ATA, Aurintricarboxilic acid] |  |  |  |  | effect on binding of HuR to 4A RNA [8]: significantly inhibited; also recorded: affected; effect on binding of HuR to the 3′ terminus of the negative HCV RNA strand [14]: significantly inhibited
